Results published in the supplement of paper PMC10307832.

Tests used:
Test in all cases: relative viability (nuclei count vs DMSO), 5 days (fraction); higher = more cells survive
NCI-H2347 = test system: NCI-H2347
Summary of the method: (§1)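 Relative viability is defined as nuclei in treated wells over nuclei in vehicle wells. Duplicate plates were run and medians reported. Lung cancer cell lines in 1536-well plates were dosed by pin tool one day after seeding, with one drug or with a fixed anchor-drug dose plus five library-drug doses (not always all listed) in √10 steps, and nuclei were counted after 5 days.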

NCI-H520 = test system: NCI-H520
Summary of the method: as §1

NCI-H441 = test system: NCI-H441
Summary of the method: as §1

NCI-H1563 = test system: NCI-H1563
Summary of the method: as §1

COR-L23 = test system: COR-L23
Summary of the method: as §1

NCI-H1793 = test system: NCI-H1793
Summary of the method: as §1

201T = test system: 201T
Summary of the method: as §1

HCC-15 = test system: HCC-15
Summary of the method: as §1

EPLC-272H = test system: EPLC-272H
Summary of the method: as §1

NCI-H2023 = test system: NCI-H2023
Summary of the method: as §1

NCI-H647 = test system: NCI-H647
Summary of the method: as §1

UMC-11 = test system: UMC-11
Summary of the method: as §1

NCI-H2405 = test system: NCI-H2405
Summary of the method: as §1

H3255 = test system: H3255
Summary of the method: as §1

NCI-H3122 = test system: NCI-H3122
Summary of the method: as §1

NCI-H1734 = test system: NCI-H1734
Summary of the method: as §1

NCI-H322M = test system: NCI-H322M
Summary of the method: as §1

PC-14 = test system: PC-14
Summary of the method: as §1

LOU-NH91 = test system: LOU-NH91
Summary of the method: as §1

`CC(=O)O[C@@]12CO[C@@H]1C[C@H](O)[C@@]1(C)C(=O)[C@H](O)C3=C(C)[C@@H](OC(=O)[C@H](O)[C@@H](NC(=O)OC(C)(C)C)c4ccccc4)C[C@@](O)([C@@H](OC(=O)c4ccccc4)[C@H]21)C3(C)C` [Docetaxel] + C[C@]1(O)C[C@@H](c2nc(-c3ccc4ccc(-c5ccccc5)nc4c3)c3c(N)nccn32)C1 [Linsitinib] (partner 1 µM) gave a relative viability (NCI-H2347; first compound 0.0002 µM) of 0.946, a relative viability (NCI-H2347; first compound 0.000632 µM) of 0.926 and a relative viability (NCI-H2347; first compound 0.002 µM) of 0.839. It also gave a relative viability (NCI-H2347; first compound 0.006325 µM) of 0.622, a relative viability (NCI-H2347; first compound 0.02 µM) of 0.517 and a relative viability (NCI-H520; first compound 0.0002 µM) of 1.06. For the same compound, the relative viability (NCI-H520; first compound 0.000632 µM) was 0.887, the relative viability (NCI-H520; first compound 0.002 µM) was 0.277 and the relative viability (NCI-H520; first compound 0.006325 µM) was 0.182. The relative viability (NCI-H520; first compound 0.02 µM) was 0.133, the relative viability (NCI-H441; first compound 0.0002 µM) was 0.405 and the relative viability (NCI-H441; first compound 0.000632 µM) was 0.27. The relative viability (NCI-H441; first compound 0.002 µM) was 0.172, the relative viability (NCI-H441; first compound 0.006325 µM) was 0.224 and the relative viability (NCI-H441; first compound 0.02 µM) was 0.117. The relative viability (NCI-H1563; first compound 0.0002 µM) was 1.19, the relative viability (NCI-H1563; first compound 0.000632 µM) was 1.15 and the relative viability (NCI-H1563; first compound 0.002 µM) was 1.05. The relative viability (NCI-H1563; first compound 0.006325 µM) was 0.988, the relative viability (NCI-H1563; first compound 0.02 µM) was 0.617 and the relative viability (COR-L23; first compound 0.0002 µM) was 0.813. It also gave a relative viability (COR-L23; first compound 0.000632 µM) of 0.722, a relative viability (COR-L23; first compound 0.002 µM) of 0.259 and a relative viability (COR-L23; first compound 0.006325 µM) of 0.101. The relative viability (COR-L23; first compound 0.02 µM) was 0.0798, the relative viability (NCI-H1793; first compound 0.0002 µM) was 1.01 and the relative viability (NCI-H1793; first compound 0.000632 µM) was 0.939. It also gave a relative viability (NCI-H1793; first compound 0.002 µM) of 0.666, a relative viability (NCI-H1793; first compound 0.006325 µM) of 0.352 and a relative viability (NCI-H1793; first compound 0.02 µM) of 0.218. For the same compound, the relative viability (201T; first compound 0.0002 µM) was 1.04, the relative viability (201T; first compound 0.000632 µM) was 1.07 and the relative viability (201T; first compound 0.002 µM) was 0.944. It also gave a relative viability (201T; first compound 0.006325 µM) of 0.48, a relative viability (201T; first compound 0.02 µM) of 0.284 and a relative viability (HCC-15; first compound 0.0002 µM) of 0.765. It also gave a relative viability (HCC-15; first compound 0.000632 µM) of 0.479, a relative viability (HCC-15; first compound 0.002 µM) of 0.227 and a relative viability (HCC-15; first compound 0.006325 µM) of 0.244. It also gave a relative viability (HCC-15; first compound 0.02 µM) of 0.162, a relative viability (EPLC-272H; first compound 0.0002 µM) of 1.08 and a relative viability (EPLC-272H; first compound 0.000632 µM) of 0.954. For the same compound, the relative viability (EPLC-272H; first compound 0.002 µM) was 0.54, the relative viability (EPLC-272H; first compound 0.006325 µM) was 0.126 and the relative viability (EPLC-272H; first compound 0.02 µM) was 0.0815. The relative viability (NCI-H2023; first compound 0.0002 µM) was 0.703, the relative viability (NCI-H2023; first compound 0.000632 µM) was 0.72 and the relative viability (NCI-H2023; first compound 0.002 µM) was 0.144. The relative viability (NCI-H2023; first compound 0.006325 µM) was 0.159, the relative viability (NCI-H2023; first compound 0.02 µM) was 0.0739 and the relative viability (NCI-H647; first compound 0.0002 µM) was 0.966. It also gave a relative viability (NCI-H647; first compound 0.000632 µM) of 0.623, a relative viability (NCI-H647; first compound 0.002 µM) of 0.123 and a relative viability (NCI-H647; first compound 0.006325 µM) of 0.102. The relative viability (NCI-H647; first compound 0.02 µM) was 0.082, the relative viability (UMC-11; first compound 0.0002 µM) was 0.982 and the relative viability (UMC-11; first compound 0.000632 µM) was 0.905. The relative viability (UMC-11; first compound 0.002 µM) was 0.278, the relative viability (UMC-11; first compound 0.006325 µM) was 0.237 and the relative viability (UMC-11; first compound 0.02 µM) was 0.183. For the same compound, the relative viability (NCI-H2405; first compound 0.0002 µM) was 0.95, the relative viability (NCI-H2405; first compound 0.000632 µM) was 0.913 and the relative viability (NCI-H2405; first compound 0.002 µM) was 0.667. It also gave a relative viability (NCI-H2405; first compound 0.006325 µM) of 0.438, a relative viability (NCI-H2405; first compound 0.02 µM) of 0.316 and a relative viability (H3255; first compound 0.0002 µM) of 0.824. For the same compound, the relative viability (H3255; first compound 0.000632 µM) was 0.866, the relative viability (H3255; first compound 0.002 µM) was 0.516 and the relative viability (H3255; first compound 0.006325 µM) was 0.223. The relative viability (H3255; first compound 0.02 µM) was 0.209, the relative viability (NCI-H3122; first compound 0.0002 µM) was 1 and the relative viability (NCI-H3122; first compound 0.000632 µM) was 1. For the same compound, the relative viability (NCI-H3122; first compound 0.002 µM) was 0.79, the relative viability (NCI-H3122; first compound 0.006325 µM) was 0.349 and the relative viability (NCI-H3122; first compound 0.02 µM) was 0.218. For the same compound, the relative viability (NCI-H1734; first compound 0.0002 µM) was 0.918, the relative viability (NCI-H1734; first compound 0.000632 µM) was 0.825 and the relative viability (NCI-H1734; first compound 0.002 µM) was 0.516. For the same compound, the relative viability (NCI-H1734; first compound 0.006325 µM) was 0.373, the relative viability (NCI-H1734; first compound 0.02 µM) was 0.235 and the relative viability (NCI-H322M; first compound 0.0002 µM) was 0.852. The relative viability (NCI-H322M; first compound 0.000632 µM) was 0.989, the relative viability (NCI-H322M; first compound 0.002 µM) was 0.878 and the relative viability (NCI-H322M; first compound 0.006325 µM) was 0.547. The relative viability (NCI-H322M; first compound 0.02 µM) was 0.374, the relative viability (PC-14; first compound 0.0002 µM) was 0.992 and the relative viability (PC-14; first compound 0.000632 µM) was 0.957. The relative viability (PC-14; first compound 0.002 µM) was 0.606, the relative viability (PC-14; first compound 0.006325 µM) was 0.152 and the relative viability (PC-14; first compound 0.02 µM) was 0.064. For the same compound, the relative viability (LOU-NH91; first compound 0.0002 µM) was 0.967, the relative viability (LOU-NH91; first compound 0.000632 µM) was 0.8 and the relative viability (LOU-NH91; first compound 0.002 µM) was 0.586. It also gave a relative viability (LOU-NH91; first compound 0.006325 µM) of 0.434 and a relative viability (LOU-NH91; first compound 0.02 µM) of 0.324.
